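How tested: cells in 96-well plates exposed to compound for 48 hours at five concentrations. At the GI50, growth is halved.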 The source made the active and inactive calls. Rule as the data show it: active = GI50 up to about 1.1 µM and inactive = higher.
Tests used:
Assay in all cases: NCI anticancer screen, dose series, 48 h
[1] = system: SK-MEL-2
[2] = system: SNB-75
[3] = system: RPMI-8226
[4] = system: TK-10
[5] = system: UACC-62
[6] = system: NCI-H226
[7] = system: UACC-257
[8] = system: A549
[9] = system: NCI/ADR-RES
[10] = system: KM12
[11] = system: MDA-MB-231
[12] = system: HT-29
[13] = system: SF-268
[14] = system: SK-OV-3
[15] = system: DU-145
[16] = system: SK-MEL-28
[17] = system: T47D
[18] = system: HL-60
[19] = system: SR

| SMILES | GI50 [1] | GI50 [2] | GI50 [3] | GI50 [4] | GI50 [5] | GI50 [6] | GI50 [7] | GI50 [8] | GI50 [9] | GI50 [10] | GI50 [11] | GI50 [12] | GI50 [13] | GI50 [14] | GI50 [15] | GI50 [16] | GI50 [17] | GI50 [18] | GI50 [19] |
| --- | --- | --- | --- | --- | --- | --- | --- | --- | --- | --- | --- | --- | --- | --- | --- | --- | --- | --- | --- |
| N#CC(C#N)=C(N)/C(C#N)=C/c1ccc2ccccc2n1 | 35 µM (inactive) | 25.8 µM (inactive) | 36.9 µM (inactive) | > 100 µM (inactive) | 18.8 µM (inactive) | 93.5 µM (inactive) | 48.8 µM (inactive) | > 100 µM (inactive) | 34.3 µM (inactive) | 19.5 µM (inactive) | 23.7 µM (inactive) | 18.6 µM (inactive) | > 100 µM (inactive) | 35.3 µM (inactive) | > 100 µM (inactive) | 18.6 µM (inactive) | > 100 µM (inactive) |  |  |
| C=CC[C@@H](N)C(=O)N(C)[C@@H](C)[C@@H](O)c1ccccc1 | > 100 µM (inactive) | 5.77 µM (inactive) |  | > 100 µM (inactive) | > 100 µM (inactive) | > 100 µM (inactive) | > 100 µM (inactive) | > 100 µM (inactive) | > 100 µM (inactive) | > 100 µM (inactive) | > 100 µM (inactive) |  | > 100 µM (inactive) | > 100 µM (inactive) | > 100 µM (inactive) | > 100 µM (inactive) | > 100 µM (inactive) | > 100 µM (inactive) |  |
| O=[N+]([O-])c1ccc(CSc2nn(Cc3ccc([N+](=O)[O-])cc3)cc3ncnc2-3)cc1 | 19.7 µM (inactive) | 34.1 µM (inactive) | 14.8 µM (inactive) | 29 µM (inactive) | 17.5 µM (inactive) | 38.4 µM (inactive) | 29 µM (inactive) | 39 µM (inactive) | 44 µM (inactive) | 30.4 µM (inactive) | 34.4 µM (inactive) | 29.6 µM (inactive) |  | > 100 µM (inactive) |  | 22.1 µM (inactive) | 44.6 µM (inactive) | 21.5 µM (inactive) |  |
| CC1=C(C(=O)OCCc2ccc([N+](=O)[O-])cc2)C(c2cccc([N+](=O)[O-])c2)C(C(=O)OC(C)C)=C(C)N1 (configuration not stated) | 7.62 µM (inactive) | 5.69 µM (inactive) | 2.88 µM (inactive) | 44.4 µM (inactive) | 4.48 µM (inactive) | 2.86 µM (inactive) | 5.89 µM (inactive) | 4.99 µM (inactive) | 3.33 µM (inactive) | 6.05 µM (inactive) |  | 4.94 µM (inactive) | 6.4 µM (inactive) | > 100 µM (inactive) | > 100 µM (inactive) | 80 µM (inactive) | 2.94 µM (inactive) | 3.52 µM (inactive) | 3.49 µM (inactive) |
| Nc1ccc(Sc2nnc(N)s2)cc1 |  | > 100 µM (inactive) | > 100 µM (inactive) | > 100 µM (inactive) |  |  | > 100 µM (inactive) | > 100 µM (inactive) | > 100 µM (inactive) | > 100 µM (inactive) | > 100 µM (inactive) |  | > 100 µM (inactive) | > 100 µM (inactive) |  | > 100 µM (inactive) | > 100 µM (inactive) | > 100 µM (inactive) | > 100 µM (inactive) |
| CC(C)(C)OC(=O)C1C(=O)NC(=O)CC1CC(OCc1ccccc1)C(COCc1ccccc1)OCc1ccccc1 (configuration not stated) |  |  | 3.07 µM (inactive) | > 100 µM (inactive) |  | 10.9 µM (inactive) | 15.5 µM (inactive) | 5.06 µM (inactive) | 10 µM (inactive) |  |  | 3.45 µM (inactive) | 11.3 µM (inactive) |  | 23.6 µM (inactive) | 29.4 µM (inactive) |  | 1.97 µM (inactive) | 3.87 µM (inactive) |
| Nn1c(S)nnc1-c1ccccc1Nc1ccccc1-c1nnc(S)n1N | > 50 µM (inactive) | > 50 µM (inactive) | 41.8 µM (inactive) | > 50 µM (inactive) | > 50 µM (inactive) | > 50 µM (inactive) | > 50 µM (inactive) |  | > 50 µM (inactive) | > 50 µM (inactive) |  | > 50 µM (inactive) | > 50 µM (inactive) |  | > 50 µM (inactive) | > 50 µM (inactive) |  | > 50 µM (inactive) | > 50 µM (inactive) |
| CCSc1[nH]c(/N=C(/NC(=O)c2ccccc2)NC(C)C)c(C(N)=O)c1C(N)=O |  | > 10 µM (inactive) | > 10 µM (inactive) | > 10 µM (inactive) | > 10 µM (inactive) |  | > 10 µM (inactive) | > 10 µM (inactive) |  | > 10 µM (inactive) | > 10 µM (inactive) | > 10 µM (inactive) | > 10 µM (inactive) | > 10 µM (inactive) | > 10 µM (inactive) | > 10 µM (inactive) | > 10 µM (inactive) | > 10 µM (inactive) | > 10 µM (inactive) |
| COC(=O)C(C)(C)OCc1ccc(C2NC(=O)N(c3cccc(Cl)c3)C(=O)N2c2cccc(Cl)c2)cc1 (configuration not stated) | 52.8 µM (inactive) | 0.34 µM (active) | 9.16 µM (inactive) |  | 36.6 µM (inactive) |  | 31.8 µM (inactive) | 35.2 µM (inactive) | 17.1 µM (inactive) | 23.7 µM (inactive) | 55 µM (inactive) | 26.1 µM (inactive) | 26.1 µM (inactive) | 54.3 µM (inactive) | 59.7 µM (inactive) | > 100 µM (inactive) |  |  | 0.52 µM (active) |
| CC(=O)/N=C1\NC(=O)/C(=C/c2ccc(/C=C3/C(=O)N/C(=N\C(C)=O)N3C)cc2)N1C | > 100 µM (inactive) | > 100 µM (inactive) |  | > 100 µM (inactive) | > 100 µM (inactive) | > 100 µM (inactive) | > 100 µM (inactive) | > 100 µM (inactive) | > 100 µM (inactive) | > 100 µM (inactive) | > 100 µM (inactive) | > 100 µM (inactive) | > 100 µM (inactive) | > 100 µM (inactive) | > 100 µM (inactive) | > 100 µM (inactive) | > 100 µM (inactive) | 47.3 µM (inactive) |  |
| COc1cc(C(c2ccccc2)N2C(=O)CC[C@H]2C(=O)O)cc(OC)c1OC (some centres not stated) | > 100 µM (inactive) | > 100 µM (inactive) | > 100 µM (inactive) | > 100 µM (inactive) | > 100 µM (inactive) | > 100 µM (inactive) | > 100 µM (inactive) | > 100 µM (inactive) | > 100 µM (inactive) | > 100 µM (inactive) |  | > 100 µM (inactive) | > 100 µM (inactive) | > 100 µM (inactive) | > 100 µM (inactive) | > 100 µM (inactive) | > 100 µM (inactive) | > 100 µM (inactive) | > 100 µM (inactive) |
| O[C@@]1(c2cccs2)c2cccc(Cl)c2[C@](O)(c2cccs2)c2cccc(Cl)c21 | 18.2 µM (inactive) | > 100 µM (inactive) | 22 µM (inactive) | 28.1 µM (inactive) | 11 µM (inactive) | 22.1 µM (inactive) | 15.2 µM (inactive) | 14.9 µM (inactive) | 22.6 µM (inactive) | 16.4 µM (inactive) | 17.3 µM (inactive) | 17.2 µM (inactive) | 19.8 µM (inactive) | 22.6 µM (inactive) | 24.7 µM (inactive) | 17.3 µM (inactive) | 32.9 µM (inactive) | 16.6 µM (inactive) |  |

Source: ChEMBL document CHEMBL1201862, “PubChem BioAssay data set” (2004)
